The numbers were not newly measured in patent publication US7294332B2, “Combination therapy (temozolomide and α-IFN) for advanced cancer” (Schering Corporation, priority 1995, dated 2007), which cites them from elsewhere.

In series [1] the test system is advanced melanoma. To be noted: patients having advanced melanoma; Newlands ES, et al. Br J Cancer 65 (2), 1992.
For series [2], the system named is advanced melanoma. To be noted: patients with advanced melanoma; Journal of Clinical Oncology, Vol 13, No. 4 (April), 1995.

For the compound `Cn1nnc2c(C(N)=O)ncn2c1=O` [Temozolomide, 3,4-dihydro-3-methyl-4-oxoimidazo-[5,1-d]1,2,3,4-tetrazin-8-carboximide], the “clinical responses achieved, % of patients” value in series [1] is reported as 17%. In series [2], the “clinical response achieved, % of patients” value is 21%.
